# Earlier results as cited in patent US20110155130A1, “Dronabinol Treatment for Migraines” (Unimed Pharmaceuticals, Inc., priority 2005, published 2011).
# Details: 5 mg to 20 mg oral doses of THC; randomized controlled clinical trials
structure (smiles),measurement,value
"CCCCCc1cc(O)c2c(c1)OC(C)(C)[C@@H]1CCC(C)=C[C@@H]21 [THC, (6a R-trans)-6a,7,8,10a-tetrahydro-6,6,9-trimethyl-3-pentyl-6H-dibenzo[b,d]pyran-1-ol]",effectiveness compared with codeine,as effective as 50 mg to 120 mg of codeine
